This note sets out measurements from patent US11013784B2 (priority 2015, dated 2021).

SMILES strings stand for the structures.

This assay relates to SKOV3-Luc ovarian tumor cells. It is filed as cell-based, human.

Consider `N.N.[Cl][Pt][Cl]` [cisplatin], for which the IC50 (usually the concentration needed to halve the response being measured) was determined as 230 µM.
